According to US20260035365A1, “1H-PYRROLO[3,2-B]PYRIDINE DERIVATIVES AS IRREVERSIBLE INHIBITORS OF MUTANT EGFR FOR THE TREATMENT OF CANCER” (Bayer Aktiengesellschaft, priority 2022, published 2026):

Assays:
[1] = molecular target: mutEGFR (D770_N771insSVD) (Homo sapiens, UniProt P00533, INS767SVD); experiment: Exon20-mutant-EGFR (D770_N771insSVD) TR-FRET kinase assay; assay type: biochemical; settings: 2 mM ATP, 15 min preincubation
In short: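 GST-fused human EGFR fragment R669-A1210 carrying the SVD insertion, Sf9-expressed, typically 15 pg/μl, was preincubated with compound for 15 min at 22° C in pH 7.0 Hepes/MgCl2 buffer. Phosphorylation was read by HTRF (665/620 nm ratio), normalised to no-inhibitor and no-enzyme controls.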

[2] = molecular target: mutEGFR (D770_N771insNPG, T790); experiment: mutEGFR (D770_N771insNPG, T790) kinase assay; assay type: biochemical, human
[3] = system: BA/F3 (insSVD) cells; experiment: Ba/F3 cell survival assay (Cell Titer-Glo), EGFR-insSVD; assay type: cell-based; settings: Mus musculus, BaF3, 48 h, without IL-3, with EGF
In short: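 Ba/F3 cells stably expressing EGFR-insSVD or insSVD T790M via retrovirus (puromycin-selected), switched from IL-3 to 10 ng/mL EGF for 2 days, then plated at 4000 cells/well. Compound added by 100 nL pin transfer; 48 h at 37° C. Viability by CellTiter-Glo luminescence.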

[4] = system: BA/F3 (EGFR D770_N771 insSVD T790M) cells; experiment: Ba/F3 cell survival assay (Cell Titer-Glo), EGFR-insSVD T790M; assay type: cell-based; settings: Ba/F3 EGFR-D770-N771ins_SVD; 48 h, without IL-3, with EGF
Procedure: 293T cells from ATCC were transfected with pBABEpuro expression constructs for WT EGFR or EGFR-insSVD, or EGFR-insSVD T790M, and pCL-Eco packaging vector using Fugene-6 transfection reagent from Promega. Plates were incubated at 37° C. for 48 h. Retrovirus was harvested by filtering the media supernatant through a 0.45 μm filter.
Ba/F3 cells purchased from DSMZ were grown in RPMI+10% FBS+10 ng/mL IL-3 and infected with filtered retroviral supernatant at a 1:2 dilution. Polybrene was added to a concentration of 8 μg/mL, plates were spun for 90 min, and incubated for 16 h at 37° C. 2 μg/mL puromycin was added to the infected cells 24 h after infection and cells were continually grown in the presence of puromycin and 10 ng/mL IL-3. Following stably expressing Ba/F3 cell lines were generated: Ba/F3-EGFR-WT, Ba/F3-EGFR-insSVD, Ba/F3-EGFR-insSVD T790M, (Ba/F3-vector-control).
For cell survival assays, Ba/F3 cells were grown to a density of 1-2 million cells per mL, spun down and resuspended in media without IL-3, and replated at a concentration of 200,000-500,000 cells per mL. The cells ectopically expressing WT EGFR, EGFR-insSVD, or EGFR-insSVD T790M were plated with 10 ng/mL Millipore Culture grade EGF. The cells ectopically expressing pBABEpuro empty vector were plated with 10 ng/mL IL-3.
2 days later, cells were plated in 50 μL in a 384 well plate at a concentration of 4000 cells per well for cells assayed in the absence of IL-3 and 2000 cells per well for cells assayed in the presence of IL-3. 100 nL of compound was added to each well using a 100 nL pin head, and plates were incubated at 37° C. for 48 h.
Cell viability was measured by adding 20 μL of Cell Titer-Glo Luminescent Cell Viability Reagent diluted 1:3 in PBS. Plates were sealed with Perkin Elmer Top-Seal, inverted several times to mix, and immediately centrifuged at 1000 rpm for 2 min. Plates were incubated in low light conditions for 8-10 min and luminescence was measured.

Chain of mutEGFR (D770_N771insSVD) (P00533 with tags, fused parts or gaps INS767SVD limits assumed): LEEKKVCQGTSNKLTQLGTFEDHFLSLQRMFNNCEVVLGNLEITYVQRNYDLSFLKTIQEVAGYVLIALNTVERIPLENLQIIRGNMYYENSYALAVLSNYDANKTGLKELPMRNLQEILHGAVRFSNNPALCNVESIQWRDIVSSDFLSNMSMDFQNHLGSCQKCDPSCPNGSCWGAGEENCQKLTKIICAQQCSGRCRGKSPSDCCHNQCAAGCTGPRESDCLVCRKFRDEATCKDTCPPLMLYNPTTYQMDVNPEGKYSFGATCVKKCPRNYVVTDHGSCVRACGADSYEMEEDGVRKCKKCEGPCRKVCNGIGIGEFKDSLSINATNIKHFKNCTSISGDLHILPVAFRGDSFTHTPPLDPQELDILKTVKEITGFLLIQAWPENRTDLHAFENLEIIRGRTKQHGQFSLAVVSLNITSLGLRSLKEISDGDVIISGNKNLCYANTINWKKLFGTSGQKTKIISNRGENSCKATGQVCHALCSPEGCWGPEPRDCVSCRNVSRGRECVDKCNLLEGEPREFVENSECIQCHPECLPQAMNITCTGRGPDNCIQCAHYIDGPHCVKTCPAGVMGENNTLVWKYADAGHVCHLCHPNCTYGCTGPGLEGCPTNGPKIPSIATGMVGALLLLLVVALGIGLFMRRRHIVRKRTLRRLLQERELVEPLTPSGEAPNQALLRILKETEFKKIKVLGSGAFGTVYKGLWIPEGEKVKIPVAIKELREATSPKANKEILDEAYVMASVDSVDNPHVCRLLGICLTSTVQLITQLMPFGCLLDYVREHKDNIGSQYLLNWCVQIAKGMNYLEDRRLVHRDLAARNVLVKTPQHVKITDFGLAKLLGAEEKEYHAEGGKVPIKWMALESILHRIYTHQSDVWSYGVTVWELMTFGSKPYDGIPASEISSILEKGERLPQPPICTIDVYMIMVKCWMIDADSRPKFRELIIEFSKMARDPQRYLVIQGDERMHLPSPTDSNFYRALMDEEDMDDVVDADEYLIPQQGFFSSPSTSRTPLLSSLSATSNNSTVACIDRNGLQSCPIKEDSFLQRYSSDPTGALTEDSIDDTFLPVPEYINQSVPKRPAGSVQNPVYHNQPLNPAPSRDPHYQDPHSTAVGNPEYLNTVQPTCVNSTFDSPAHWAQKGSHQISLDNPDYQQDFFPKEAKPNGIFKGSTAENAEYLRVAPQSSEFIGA
Chain of mutEGFR (D770_N771insNPG, T790) (P00533 with tags, fused parts or gaps INS770NPG limits assumed): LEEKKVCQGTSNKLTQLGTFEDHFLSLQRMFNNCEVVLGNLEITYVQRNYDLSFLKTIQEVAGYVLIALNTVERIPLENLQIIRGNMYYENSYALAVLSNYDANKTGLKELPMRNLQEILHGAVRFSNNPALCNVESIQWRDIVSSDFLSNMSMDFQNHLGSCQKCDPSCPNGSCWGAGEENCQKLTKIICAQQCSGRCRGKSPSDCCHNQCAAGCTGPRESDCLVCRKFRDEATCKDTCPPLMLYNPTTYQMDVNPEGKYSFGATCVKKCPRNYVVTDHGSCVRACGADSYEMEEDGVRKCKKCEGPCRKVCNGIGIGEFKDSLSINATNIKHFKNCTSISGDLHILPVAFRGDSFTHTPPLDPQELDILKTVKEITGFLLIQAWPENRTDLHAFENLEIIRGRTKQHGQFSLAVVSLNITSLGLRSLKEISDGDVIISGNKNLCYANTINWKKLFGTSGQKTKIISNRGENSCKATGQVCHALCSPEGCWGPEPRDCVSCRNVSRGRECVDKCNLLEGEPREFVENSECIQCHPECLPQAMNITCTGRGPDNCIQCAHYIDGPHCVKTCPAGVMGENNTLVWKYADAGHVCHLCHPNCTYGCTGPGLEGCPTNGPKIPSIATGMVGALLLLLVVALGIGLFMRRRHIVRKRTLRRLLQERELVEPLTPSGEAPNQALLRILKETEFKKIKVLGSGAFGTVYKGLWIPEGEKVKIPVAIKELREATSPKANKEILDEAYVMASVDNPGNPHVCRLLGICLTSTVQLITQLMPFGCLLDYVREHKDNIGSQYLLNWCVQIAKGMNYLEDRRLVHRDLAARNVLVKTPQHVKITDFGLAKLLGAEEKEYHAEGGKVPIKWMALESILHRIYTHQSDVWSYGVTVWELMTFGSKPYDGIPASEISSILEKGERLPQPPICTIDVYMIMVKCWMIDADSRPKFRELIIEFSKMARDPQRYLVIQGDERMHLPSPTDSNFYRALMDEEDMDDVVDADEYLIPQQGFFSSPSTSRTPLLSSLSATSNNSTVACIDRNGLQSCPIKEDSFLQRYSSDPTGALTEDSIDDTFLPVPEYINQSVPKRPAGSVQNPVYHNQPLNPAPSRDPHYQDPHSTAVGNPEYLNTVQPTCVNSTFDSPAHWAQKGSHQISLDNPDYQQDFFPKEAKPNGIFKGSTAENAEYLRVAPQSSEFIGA

| SMILES | IC50 [1] [µM] | IC50 [2] [µM] | IC50 [3] [µM] | IC50 [4] [µM] |
| --- | --- | --- | --- | --- |
| C=CC(=O)NCCOc1cnccc1-c1[nH]c2cccnc2c1-c1ccc(F)cc1 [Example 1, N-[2-({4-[3-(4-fluorophenyl)-1H-pyrrolo[3,2-b]pyridin-2-yl]pyridin-3-yl}oxy)ethyl]prop-2-enamide] | 0.414 | 0.606 | 4.47 | 9.98 |
| C=CC(=O)NCCOc1cnccc1-c1[nH]c2cccnc2c1-c1ccccc1 [Example 2, N-(2-{[4-(3-phenyl-1H-pyrrolo[3,2-b]pyridin-2-yl)pyridin-3-yl]oxy}ethyl)prop-2-enamide] | 0.461 | 0.751 | 5.02 | 9.98 |
| C=CC(=O)N(C)CCCOc1cnccc1-c1[nH]c2cccnc2c1-c1ccccc1 [Example 3, N-methyl-N-(3-{[4-(3-phenyl-1H-pyrrolo[3,2-b]pyridin-2-yl)pyridin-3-yl]oxy}propyl)prop-2-enamide] | 2.84 | 3.41 | 9.98 | 9.98 |
| C=CC(=O)N(C)CCOc1cnccc1-c1[nH]c2cccnc2c1-c1ccccc1 [Example 4, N-methyl-N-(2-{[4-(3-phenyl-1H-pyrrolo[3,2-b]pyridin-2-yl)pyridin-3-yl]oxy}ethyl)prop-2-enamide] | 0.00758 | 0.0171 | 0.346 | 9.98 |
| C=CC(=O)NCCCOc1cnccc1-c1[nH]c2cccnc2c1-c1ccccc1 [Example 5, N-(3-{[4-(3-phenyl-1H-pyrrolo[3,2-b]pyridin-2-yl)pyridin-3-yl]oxy}propyl)prop-2-enamide] | 11.3 | > 20 | 9.98 | 9.98 |
| C=CC(=O)NCCOc1cnccc1-c1[nH]c2cc(F)cnc2c1-c1ccccc1 [Example 6, N-(2-{[4-(6-fluoro-3-phenyl-1H-pyrrolo[3,2-b]pyridin-2-yl)pyridin-3-yl]oxy}ethyl)prop-2-enamide] | 3.85 | 5.51 | 7.08 | 9.98 |
| C=CC(=O)N(C)CCOc1cnccc1-c1[nH]c2cc(F)cnc2c1-c1ccccc1 [Example 7, N-(2-{[4-(6-fluoro-3-phenyl-1H-pyrrolo[3,2-b]pyridin-2-yl)pyridin-3-yl]oxy}ethyl)-N-methylprop-2-enamide] | 0.147 | 0.316 | 4.15 | 6.99 |
| C=CC(=O)N(C)CCOc1cnccc1-c1[nH]c2ccc(OC)nc2c1-c1ccccc1 [Example 8, N-(2-{[4-(5-methoxy-3-phenyl-1H-pyrrolo[3,2-b]pyridin-2-yl)pyridin-3-yl]oxy}ethyl)-N-methylprop-2-enamide] | 0.198 | 0.52 | 5.27 | 8.93 |
| C=CC(=O)N(C)CCOc1cnccc1-c1[nH]c2cccnc2c1-c1cccc(C)c1 [Example 9, N-methyl-N-[2-({4-[3-(3-methylphenyl)-1H-pyrrolo[3,2-b]pyridin-2-yl]pyridin-3-yl}oxy)ethyl]prop-2-enamide] | 0.00601 | 0.0135 | 0.293 | 8.72 |
| C=CC(=O)N(C)CCOc1cnccc1-c1[nH]c2cccnc2c1-c1ccc(Cl)c(C)c1 [Example 10, N-[2-({4-[3-(4-chloro-3-methylphenyl)-1H-pyrrolo[3,2-b]pyridin-2-yl]pyridin-3-yl}oxy)ethyl]-N-methylprop-2-enamide] | 0.0731 | 0.0906 | 2.93 | 9.98 |
| C=CC(=O)N(C)CCOc1cnccc1-c1[nH]c2cccnc2c1-c1ccc(Cl)cc1 [Example 11, N-[2-({4-[3-(4-chlorophenyl)-1H-pyrrolo[3,2-b]pyridin-2-yl]pyridin-3-yl}oxy)ethyl]-N-methylprop-2-enamide] | 0.0134 | 0.0462 | 1.12 | 9.98 |
| C=CC(=O)N(C)CCOc1cnccc1-c1[nH]c2cccnc2c1-c1ccc(F)c(C)c1 [Example 12, N-[2-({4-[3-(4-fluoro-3-methylphenyl)-1H-pyrrolo[3,2-b]pyridin-2-yl]pyridin-3-yl}oxy)ethyl]-N-methylprop-2-enamide] | 0.00868 | 0.0142 | 0.538 | 9.1 |
| C=CC(=O)N(C)CCOc1cnccc1-c1[nH]c2cccnc2c1-c1ccc(Cl)c(C(=O)OC)c1 [Example 13, Methyl 2-chloro-5-[2-(3-{2-[methyl(prop-2-enoyl)amino]ethoxy}pyridin-4-yl)-1H-pyrrolo[3,2-b]pyridin-3-yl]benzoate] | 0.72 | 1.39 | 6.19 | 9.98 |
| C=CC(=O)N(C)CCOc1cnccc1-c1[nH]c2cccnc2c1-c1cccc(F)c1 [Example 14, N-[2-({4-[3-(3-fluorophenyl)-1H-pyrrolo[3,2-b]pyridin-2-yl]pyridin-3-yl}oxy)ethyl]-N-methylprop-2-enamide] | 0.0164 | 0.0463 | 0.833 | 9.98 |
| C=CC(=O)N(C)CCOc1cnccc1-c1[nH]c2cccnc2c1-c1ccc(Cl)c(OC)c1 [Example 15, N-[2-({4-[3-(4-chloro-3-methoxyphenyl)-1H-pyrrolo[3,2-b]pyridin-2-yl]pyridin-3-yl}oxy)ethyl]-N-methylprop-2-enamide] | 1.54 | 4.85 | 9.24 | 9.98 |
| C=CC(=O)N(C)CCOc1cnccc1-c1[nH]c2cccnc2c1-c1ccccc1OC [Example 17, N-[2-({4-[3-(2-methoxyphenyl)-1H-pyrrolo[3,2-b]pyridin-2-yl]pyridin-3-yl}oxy)ethyl]-N-methylprop-2-enamide] | 0.569 | 1.7 | 8.16 | 9.98 |
| C=CC(=O)N(C)CCOc1cnccc1-c1[nH]c2cccnc2c1-c1ccc2cccnc2c1 [Example 18, N-methyl-N-[2-({4-[3-(quinolin-7-yl)-1H-pyrrolo[3,2-b]pyridin-2-yl]pyridin-3-yl}oxy)ethyl]prop-2-enamide] | 0.549 | 1.67 | 7.98 | 9.98 |
| C=CC(=O)N(C)CCOc1cnccc1-c1[nH]c2cccnc2c1-c1cccc(F)c1OC [Example 19, N-[2-({4-[3-(3-fluoro-2-methoxyphenyl)-1H-pyrrolo[3,2-b]pyridin-2-yl]pyridin-3-yl}oxy)ethyl]-N-methylprop-2-enamide] | 0.178 | 0.797 | 6.1 | 9.98 |
| C=CC(=O)N(C)CCOc1cnccc1-c1[nH]c2cccnc2c1-c1ccc(Cl)c(CC)c1 [Example 20, N-[2-({4-[3-(4-chloro-3-ethylphenyl)-1H-pyrrolo[3,2-b]pyridin-2-yl]pyridin-3-yl}oxy)ethyl]-N-methylprop-2-enamide] | 0.365 | 0.779 | 4.65 | 8.99 |
| C=CC(=O)N(C)CCOc1cnccc1-c1[nH]c2cccnc2c1-c1cccc(Cl)c1OC [Example 21, N-[2-({4-[3-(3-chloro-2-methoxyphenyl)-1H-pyrrolo[3,2-b]pyridin-2-yl]pyridin-3-yl}oxy)ethyl]-N-methylprop-2-enamide] | 0.29 | 2.26 | 4.16 | 9.98 |
